Experiments:
[1] = system: non-BK native currents in the oocytes; experiment: non-BK (IBTX-insensitive) native current in oocytes, voltage clamp; type: cell-based, Xenopus; details: at the tested concentration; current remaining in presence of 50 nM IBTX
Experimental: (§1) The ability of the compound of Example 1 to open BK channels and increase whole-cell outward (K^+) BK-mediated currents was assessed under voltage-clamp conditions by determining their ability to increase cloned mammalian (mSlo or hSlo) BK-mediated outward current heterologously expressed in Xenopus oocytes [Butler, A., et al., Science, 261, pp. 221-224 (1993); and Dworetzky, S. I., et al., Mol. Brain Res., 27, pp.189-193 (1994)]. The two BK constructs employed represent nearly structurally identical homologous proteins, and have proven to be pharmacologically identical in our tests. To isolate BK current from native (background, non-BK) current, the specific and potent BK channel-blocking toxin iberiotoxin (IBTX) [Galvez, A., et al., J. Biol. Chem,265, pp. 11083-11090 (1990)] was employed at a supramaximal concentration (50 nM). The relative contribution of BK channels current to total outward current was determined by subtraction of the current remaining in the presence of IBTX (non-BK current) from the current profiles obtained in all other experimental conditions (control, drug, and wash). […]

[2] = system: cortical infarct volume; experiment: focal stroke model, permanent MCA and CCA occlusion; type: in vivo; details: 10 μg/kg intravenously, single bolus two hours after MCAO; Wistar rat; infarct measured 24 hours after MCAO; vs vehicle-treated (water) control
Experimental: To determine the ability of the compounds of the present invention to reduce cell loss resulting from neuronal ischemia, a standard focal cerebral ischemia is induced by permanent occlusion of the left middle cerebral artery (MCA) and common carotid artery (CCA) with one hour occlusion of the right CCA in the Wistar rat. The surgeries are performed using the sub-temporal approach of A. Tamura, et al., J. Cereb. Blood Flow Metab., 1, pp. 53-60, (1981) and its modifications [K. Osborne, et al., J. Neurol Neurosurg. Psychiatry, 50, pp. 402-410 (1987) and S. Menzies, et al., Neurosurgery, 31, pp. 100-107, (1992).]
The compound of Example 1 was evaluated in the focal stroke model involving permanent occlusion of the left MCA (MCAO) and CCA (CCAO) and temporary occlusion of the right CCA in the Wistar rat. This procedure results in a reliably large neocortical infarct volume that is measured by means of vital dye exclusion in serial slices through the brain 24 hours after MCAO. In the present test, compounds were administered using an i.v. or i.p. route of administration two hours after occlusion.

[3] = system: cloned mammalian (mSlo or hSlo) BK channels; experiment: BK-mediated outward current in Xenopus oocytes, two-electrode voltage clamp; type: cell-based; details: 1 μM; at least 5 oocytes; mSlo or hSlo expressed in Xenopus oocytes
Experimental: as §1

[4] = rapid screen of prodrug hydrolysis and drug release in plasma; type: in vitro ADME; details: 10 ug/mL in fresh rat plasma at 37° C.; stock 1 mg/mL in PEG-400; analysis 5 minutes after incubation; HPLC
Experimental: A rapid screen to determine the ability of prodrugs to hydrolyze and release the drug (compound of Example 1) is conducted as follows. A 1 mg/mL stock solution of the prodrug is prepared in distilled water or acetonitrile or PEG-400. Plasma from freshly collected rat or human blood is used in this assay. To 1 mL of plasma at 37° C. was added 10 μL of stock solution of prodrug and mixed gently. Immediately after the mixing, 100 μL of plasma was removed and quenched with 300 μL of acetontrile (Zero time sample). Samples were also obtained at 30 minutes and quenched immediately. The quenched samples were centrifuged to obtain a clear supernatant for analysis. The stock solution, T=0 and T=30 samples were analyzed by a HPLC assay that separates the drug from the prodrug. Based on the relative peak areas of prodrug and drug in these samples, different prodrugs are characterized as fast, moderate and slow release agents. For example, in this model, the compound of Example 6 was dissolved in PEG-400 at a concentration of 1 mg/mL and incubated at 10 ug/mL in fresh rat plasma at 37° C.

O=c1oc(-c2ccc(C(F)(F)F)cc2)nn1Cc1cc(Cl)ccc1O [Example 1, 3-[(5-Chloro-2-hydroxyphenyl)methyl]-5-[4-(trifluoromethyl)phenyl]-1,3,4-oxadiazol-2(3H)-one]
effect on non-BK native currents in the oocytes [1]: did not effect non-BK native currents | reduction of cortical infarct volume [2]: about 18% | BK current, % of control of IBTX-sensitive current [3]: 126 % of control

O=C(COP(=O)(O)O)Oc1ccc(Cl)cc1Cn1nc(-c2ccc(C(F)(F)F)cc2)oc1=O [Example 6, 3-[[5-Chloro-2-[[[(phosphonooxy)methyl]carbonyl]oxy]phenyl]methyl]-5-[4-(trifluoromethyl)phenyl]-1,3,4-oxadiazol-2(3H)-one]
conversion of prodrug to the drug (compound of Example 1) [4]: conversion of the compound of Example 6 to the compound of Example 1
